Experimental data from PMC9496553, “The Dual-Targeted Peptide Conjugated Probe for Depicting Residual Nasopharyngeal Carcinoma and Guiding Surgery” (Biosensors, 2022).
No end group written: not given here.

Tests used:
Format in all cases: in vivo, BALB/c nude mice
5-8F tumours [1] = assay: Biodistribution and tumour selectivity by whole-body fluorescence imaging, subcutaneous tumour model; conditions: for maximum TBR (tumour-to-background ratio): i.v. 12 μM, tumour region vs ipsilateral auricle
Protocol: (§1) Animal experiments were performed in accordance with the approval of Animal Welfare and Ethics Committee of Jinan University (approval number: IACUC-20211210-03). Four-week-old BALB/c nude mice were purchased from the Beijing Vital River Laboratory Animal Technology Co., Ltd. (Beijing, China). Subcutaneous tumour models received a subcutaneous injection of 5-8F (5.0 × 10^6 in 200 μL PBS) in the lower right flank. Experiments were started 10–14 days after tumour implantation, when the tumour diameter was 6–8 mm. Tumour volumes were measured using a Vernier calliper and calculated using the formula for a hemiellipsoid (volume = 0.5236 × length × width^2), as this form best approximated the tumour shape. For orthotopic tumour models, mice were anaesthetised using isoflurane with a precision vaporiser at 1% and injected with 25 μL of 1.1 × 10^5 5-8F-fLuc cells into the nasopharynx using a 28-gauge needle, as previously reported. Mice were fed a specific pathogen-free unit, and animal surgery was performed in a sterile hood. Orthotopic tumours were visualised and tracked by bioluminescence imaging (BLI) using an IVIS® Spectrum In Vivo Imaging System (PerkinElmer, Waltham, MA, USA). Specifically, mice received an intraperitoneal injection of 3 mg/mL luciferin bioluminescent substrate (Perkin Elmer, Waltham, MA, USA) 4 min before imaging.
Mice with subcutaneous 5-8F tumours were randomly divided into three groups (n = 3 per group). The three groups received intravenous (i.v.) injection with 12 μM FY-35 (dual-target dye), 12 μM FL-35 (single-target dye), and equimolar quantities of free dye, respectively. Fluorescence images were acquired pre-, 2 h, 6 h, 10 h, and 24 h post-injection. The mice in each group were euthanised. The heart, lung, liver, pancreas, spleen, kidney, intestine, and tumour tissues were collected for ex vivo imaging. The MFI was analysed to determine organ biodistribution and tumour selectivity in the three groups. The TBR was calculated by drawing regions of interest within the tumour region and ipsilateral auricle of each mouse.

[2] = test system: 5-8F-fLuc orthotopic tumours; assay: Fluorescence imaging of orthotopic nasopharyngeal tumours; conditions: orthotopic model, n = 5, i.v. 12 μM, imaged up to 48 h post-injection
Protocol: as §1, with “Mice were fed a specific pathogen-free unit, and animal surgery was performed in a sterile hood. Orthotopic tumours were visualised and tracked by bioluminescence imaging (BLI) using an IVIS® Spectrum In Vivo Imaging System (PerkinElmer, Waltham, MA, USA). Specifically, mice received an intraperitoneal injection of 3 mg/mL luciferin bioluminescent substrate (Perkin Elmer, Waltham, MA, USA) 4 min before imaging.” left out
(§2) To identify the minimal size of detectable tumours, subcutaneous tumours of different sizes (1–7 mm; n = 8) were injected with 12 μM FY-35, and imaged at 24 h post-injection to measure MFI in the tumour region. […] Serial sections were cut at a thickness of 10 μm for fluorescence imaging using an inverted microscope (Leica, Wetzlar, Germany), and 4 μm for haematoxylin–eosin (H&E) staining.

5-8F tumours [3] = assay: Minimal size of detectable subcutaneous tumours by fluorescence imaging; conditions: 12 μM, n = 8
Protocol: as §1, with “Mice were fed a specific pathogen-free unit, and animal surgery was performed in a sterile hood. Orthotopic tumours were visualised and tracked by bioluminescence imaging (BLI) using an IVIS® Spectrum In Vivo Imaging System (PerkinElmer, Waltham, MA, USA). Specifically, mice received an intraperitoneal injection of 3 mg/mL luciferin bioluminescent substrate (Perkin Elmer, Waltham, MA, USA) 4 min before imaging.” left out
as §2

Row | Substance | contrast improved compared to single-targeted tracer (IR800-FL-35) (5-8F tumours [1]; at 24 h post-injection) | maximum TBR (tumour-to-background ratio) (5-8F tumours [1]; subcutaneous 5-8F tumours) | maximum TBR, fold higher than that of IR800-FL-35 (5-8F tumours [1]; subcutaneous 5-8F tumours) | retention of optical contrast in the tumour region [2] | tumour volume at which the MFI increased remarkably (5-8F tumours [3]; 24 h post-injection) | minimum size of detectable tumours (5-8F tumours [3]; imaged 24 h post-injection, subcutaneous tumours 1–7 mm)
1 | IR800-FY-35: bispecific peptide FY-35 labelled with IRDye 800CW (FAEKFKEAVKDYFAKFWDGSGLTVSPWYLTVSPWY; also: IRDye 800CW label, site not given here) | 2.3 fold | 13.83 | 2.3 fold | 48 h | 32 mm^3 | 3.9 mm
2 | IR800-FL-35: single-targeted peptide FL-35 labelled with IRDye 800CW (FAEKFKEAVKDYFAKFWDGSGSYTYSTPVWVPLWL; also: IRDye 800CW label, site not given here) |  | 5.99 |  |  |  | 
